Measurements reported in patent US9062051B2, “Compounds and pharmaceutical compositions thereof for the treatment of proliferative disorders” (GALAPAGOS NV, priority 2014, dated 2015).
“Also recorded” adds a separate entry of the source.

Tested on: MDA-MB-231 cells
Experiment: Mouse xenograft model of human triple negative breast cancer (MDA-MB-231), tumorous growth inhibition
Format: in vivo, Female BALB/c Mice
Details: for RTV (Relative Tumor Volume) / T/C (Tumour Vs Control) / TGI (Tumor Growth Inhibition): p.o., qd
Experimental: Animals (Female BALB/c Mice, Harlan, 51930, 18-20 g) are provided with filtered tap water and standard chow ad libitum and maintained at 22±2° C. in 55±10% humidity on a 12 h light/dark cycle.
Paclitaxel used as a positive control is formulated by 1/3 dilution of commercial solution (Fresenius kabi, 871WF014/4) in saline.
The test compounds for po administration are formulated in 0.5% methylcellulose (VWR, ref AX021233).
MDA-MB-231 cell line is obtained from the ATCC collection (ref HTB-26). The cells are then cultured in RPMI 1640 medium supplemented with […] (Gibco 15140-148) and 1% (v/v) L-Glutamine 200 mM (Gibco 25030-024) at 37° C. in a 5% CO2 incubator.
5 million MDA-MB-231 cells/mice in 0.1 mL of 50% Matrigel (BD biosciences, LDEV free 256235)+50% D-PBS 1× (Gibco 14190-086) are injected by subcutaneous route on the upper back of 120 mice. Prior to implantation, mice are anesthetized by intra-peritoneal injection with a 0.1 mL/10 g dose of anaesthetic solution (18 mL NaCl, 0.9%+0.5 mL xylazine, +1.5 mL ketamine. […]
Body weight, and tumor growth is recorded twice a week during the course of treatment.
After 26 days the treatment is stopped, in each group half of the mice are euthanized for tissue collection, and the other half is kept for a further 7 days, during which period body weight and tumour sized are measured.
In sacrificed mice, blood and tumours are collected, analysed, and the effect of the test compounds is compared with controls (vehicle and paclitaxel).
The values were obtained using the following calculations
Relative Tumor Volume (RTV):
Tumor Growth Inhibition (TGI) TGI=1−T/C

| SMILES | tumour growth (30 mg/kg p.o., QD, 26 days treatment, MDA-MB-231 xenograft) | RTV (Relative Tumor Volume) (day 26, 30 mg/kg) | T/C (Tumour Vs Control) (day 26, 30 mg/kg) | TGI (Tumor Growth Inhibition) (day 26, 30 mg/kg) | RTV (Relative Tumor Volume) (day 26, 100 mg/kg) | T/C (Tumour Vs Control) (day 26, 100 mg/kg) | TGI (Tumor Growth Inhibition) (day 26, 100 mg/kg) | RTV (Relative Tumor Volume) (day 26, 300 mg/kg) | T/C (Tumour Vs Control) (day 26, 300 mg/kg) | TGI (Tumor Growth Inhibition) (day 26, 300 mg/kg) | anti-tumour effect (dosed at 30, 100 or 300 mg/kg, 26 days treatment, MDA-MB-231 xenograft) |
| --- | --- | --- | --- | --- | --- | --- | --- | --- | --- | --- | --- |
| Cc1ccc(NC(=O)c2cccc(C(F)(F)F)c2)cc1-c1ccc2c([C@H](C)O)n[nH]c2n1 [Compound 55, N-{3-[3-((S)-1-Hydroxy-ethyl)-1H-pyrazolo[3,4-b]pyridin-6-yl]-4-methyl-phenyl}-3-trifluoromethyl-benzamide] | complete block of tumour growth; also recorded: blocks tumorous growth | 1.01 | 0.14% | 99.86% | – | – | – | – | – | – | – |
| Cc1ccc(NC(=O)c2cccc(C(F)(F)F)c2)cc1-c1cc(C)c2c(N)n[nH]c2n1 [Compound A, N-(3-(3-amino-4-methyl-1H-pyrazolo[3,4-b]pyridin-6-yl)-4-methylphenyl)-3-(trifluoromethyl)benzamide] | – | 3.40 | 54.89% | 45.11% | 3.09 | 47.80% | 52.20% | 4.74 | 85.40% | 14.60% | shows a plateau of its anti-tumour effect and is not able to achieve the same effect on inhibition of tumour growth |
